“Also recorded” adds a separate entry of the source.
What was measured:
[1] = system: SW1573 cells (lung); test: Antiproliferative activity (SRB), SW1573; format: cell-based, human; details: means ± SEM, n = 3
Procedure: (§1) Stock solutions in DMSO of the samples were prepared to dissolve the plant extract at a concentration of 100 mg/mL and the pure compounds 1–2 at 40 mM. For the antiproliferative activity tests, human solid tumor cells (100 µL) were seeded onto 96-well plates at a density of 2500 (A549, HBL-100, HeLa, and SW1573) or 5000 (T-47D, and WiDr) cells/well.
(§2) On the next day, the samples were added to the cell cultures in triplicate at decimal dilutions in the range 250 to 2.5 µg/mL for the extracts and 100 to 0.001 µM for compounds 1–2. Control cells were exposed to an equivalent amount of DMSO (0.25% v/v, negative control). Cells were incubated for an additional 48 h, after which time they were precipitated with 25 μL of ice-cold TCA (50% w/v) and fixed for 60 min at 4 °C [20]. Following sulforhodamine B staining, the optical density (OD) of each well was measured at 530 nm using a BioTek Power Wave XS absorbance microplate reader. Values were corrected with the background OD of the wells containing the control. […] The cell lines used in this study were kindly provided by Prof. Godefridus J. Peters (VUmc, Amsterdam, The Netherlands).

[2] = system: A549 cells (lung); test: Antiproliferative activity (SRB), A549; format: cell-based, human; details: means ± SEM, n = 3
Procedure: as §1, §2

[3] = system: HeLa cells (cervix); test: Antiproliferative activity (SRB), HeLa; format: cell-based; details: 48 h; for GI50 / TGI (total growth inhibition) against HeLa cells: SRB; for GI50: means ± SEM, n = 3; for LC50 (50% lethal concentration): read-out: LC50 against HeLa cells
Procedure: as §1, §2

[4] = system: WiDr cells (colon); test: Antiproliferative activity (SRB), WiDr; format: cell-based, human; details: 48 h, means ± SEM, n = 3
Procedure: as §1, §2

[5] = system: HBL-100 cells (breast); test: Antiproliferative activity (SRB), HBL-100; format: cell-based, human; details: means ± SEM, n = 3
Procedure: as §1, §2

[6] = system: T-47D cells (breast); test: Antiproliferative activity (SRB), T-47D; format: cell-based, human; details: 48 h, means ± SEM, n = 3
Procedure: as §1, §2

[7] = ABTS•+ scavenging capacity; format: biochemical; details: mean ± SD, n = 3
Procedure: The ABTS^•+ radical scavenging assay was employed to determine the antioxidant activity of G. pinifolium conventional extracts; the radical solution was prepared 16 h before the measurements mixing 7 mM ABTS and 2.45 mM K2S2O8, and the solution was stored protected from the light at room temperature until the ABTS radical formation. For the assay, were mixed 250 µL of ABTS radical with an increasing concentration of sample or positive control (Trolox), and after half an hour, the absorbance was measured at 734 nm with a Synergy HTX microplate reader. The results are expressed as IC50 in µg of extract or Trolox per mL. The percentage of radical inhibition formula was employed for the ABTS inhibition calculation, then the IC50 was calculated through linear regression (concentration vs. inhibition percentage), and the data is reported as the mean ± SD.

[8] = biological target: T1, butyrylcholinesterase (BChE) (Equus caballus, UniProt P81908); test: biochemical; details: means ± SD, n = 3; read-out: BChE Inhibition IC50 (converted)
T1 construct: purchased Sigma-Aldrich Chem. Co. (St. Louis, MO, USA); host or cells: equine serum
Procedure: (§3) The systems Arium 126 61316-RO and Arium 611 UV unit (Sartorius, Goettingen, Germany) were employed to get the ultra-pure water. […] Formic acid, methanol, ethyl acetate, and n-hexane of HPLC grade were obtained from Merk® (Santiago, Chile).
(§4) The Ellman method was used for the determination of the inhibitory potential against AChE and BChE. The enzymes were dissolved in Tris-HCl buffer 50 mM at pH 8.0 at the final concentration of 0.26 U/mL, and samples were prepared at 2 mg/mL and dissolved in buffer. […] Finally, to start the reaction, we added 20 µL of the substrate (acetyl-thiocholine iodide for AChE inhibition or butyryl-thiocholine chloride for BChE inhibition assays), and the absorbance was recorded at 405 nm for half an hour at 37 °C. The analysis was performed in triplicate, and the results are expressed as IC50.

[9] = biological target: T2, acetylcholinesterase (AChE) (Electrophorus electricus, UniProt O42275); test: biochemical; details: means ± SD, n = 3; read-out: AChE Inhibition IC50 (converted)
T2 construct: purchased Sigma-Aldrich Chem. Co. (St. Louis, MO, USA)
Procedure: as §3, §4

[10] = system: HeLa cells; test: Label-free continuous live-cell imaging, apoptosis kinetics (LCDA); format: cell-based, human; details: 20 h exposure, 1 at 80 µM, 2 at 50 µM
Procedure: The imaging platform microscope CX-A (Nanolive SA, Lausanne, Switzerland) was used to get refractive indexes (RIs), creating a holotomographic 3D image of the cells. HeLa cells were employed at a density of 50,000 cells/well onto an IBIDI μ-Dish, 35 mm high (IBIDI, Gräfelfing, Munich, Germany) and treated with compounds 1 and 2 right before the acquisition of the images at a dose of 80 µM and 50 µM, respectively. Data obtained were transferred to FIJI (NIH, Bethesda, MD, USA) for image analysis. The LIVE Cell Death Assay (LCDA) software (Nanolive SA) was used for the analysis of the RIs and for obtaining apoptosis kinetics.

[11] = system: intact rat aorta; test: Vascular reactivity, relaxation of PE pre-contracted aortic rings; design: species or system Sprague Dawley rats; details: 10^−9–10^−4 M, pre-contracted with 10^−6 M PE, three experiments
Procedure: The investigation was conducted according to the local ethics research committee of Universidad de Antofagasta, which ratified the experimental procedures (CEIC #275/2020 and CEIC #366/2022) for the use of a normotensive animal model (n = 3–6). The characteristics of the animals were as follows: male Sprague Dawley rats, six to eight weeks old, weighing between 170 and 200 g. The animals were kept at room temperature (22–25 °C) with 45–51% of humidity with ad libitum free-choice access to tap water and food and were randomized.
All the animals were euthanized by cervical dislocation and immediately proceeded to dissection of the aorta. Then the vascular tissue was arranged in organ baths that were filled with Krebs-Ringer bicarbonate solution pH 7.4 and remained at 37 °C with a constant flux of gas (95% O2 and 5% CO2). Once the tissue was stabilized and the integrity of the vascular endothelium was evaluated, the aortic rings were pre-contracted with 10^−6 M phenylephrine (PE), and after ten minutes, increasing concentrations of G. pinifolium extract, 2-nor-1,2-secolycoserone or ent-labda-8,13-E-diene-15-ol were added in the organ bath.
The data acquired from vascular reactivity assays were expressed as average ± standard error of the mean (SEM). One-way analysis of variance (ANOVA) followed by the Dunnett test was employed for statistical data analysis. […]

[12] = system: A549, SW1573, HBL-100, T-47D, HeLa, WiDr; test: Antiproliferative activity (SRB), panel of six human solid tumor cell lines; format: cell-based; details: 48 h, read-out: GI50 range over all cell lines
Procedure: as §1, §2

[13] = system: MCF-7; design: method as in doi:10.1016/j.indcrop.2015.06.033; details: 24 h of drug exposure; read-out: IC50 cell growth inhibition MCF-7; cited from earlier work
[14] = Radical DPPH inhibition; format: biochemical; details: mean ± SD, n = 3
Procedure: The radical DPPH inhibition was performed by mixing thoroughly 150 µL of DPPH 400 μM with 50 µL of the sample or positive control, the 96-well microplate was kept protected from the light, and after half hour of reaction, the absorbance was recorded at 515 nm in a Synergy HTX microplate reader [13, 16]. All the measurements were performed in triplicate. The data are expressed as IC50 in µg of extract or standard per mL and reported as the mean ± SD. The determination of the IC50 was performed using linear regression. Methanol was employed as a negative control and BHT as a positive control. The percentage of DPPH radical inhibition was calculated according to the following equation: Percentage of radical inhibition (%)=(1−A−As/ADPPH)×100
A: is the absorbance of the mixture of extract and radical, As: is the absorbance of the methanol and extract, and ADDPH: is the absorbance of the radical work solution.

T1 sequence (P81908 whole entry): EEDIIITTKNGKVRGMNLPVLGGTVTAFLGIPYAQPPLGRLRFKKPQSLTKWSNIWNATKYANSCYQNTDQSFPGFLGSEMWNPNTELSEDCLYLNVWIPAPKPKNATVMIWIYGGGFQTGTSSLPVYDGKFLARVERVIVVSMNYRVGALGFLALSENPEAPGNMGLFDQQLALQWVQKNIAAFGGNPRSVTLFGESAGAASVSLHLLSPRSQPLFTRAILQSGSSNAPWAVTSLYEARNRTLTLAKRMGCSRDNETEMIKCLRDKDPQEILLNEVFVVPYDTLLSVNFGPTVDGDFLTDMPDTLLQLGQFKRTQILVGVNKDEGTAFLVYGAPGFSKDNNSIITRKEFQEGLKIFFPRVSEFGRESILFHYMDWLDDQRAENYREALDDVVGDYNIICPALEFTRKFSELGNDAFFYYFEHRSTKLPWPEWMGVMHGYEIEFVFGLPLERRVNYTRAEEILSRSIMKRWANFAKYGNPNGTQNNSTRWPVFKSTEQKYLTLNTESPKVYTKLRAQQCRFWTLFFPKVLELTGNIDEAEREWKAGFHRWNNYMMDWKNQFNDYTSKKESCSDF
T2 sequence (O42275 24-633): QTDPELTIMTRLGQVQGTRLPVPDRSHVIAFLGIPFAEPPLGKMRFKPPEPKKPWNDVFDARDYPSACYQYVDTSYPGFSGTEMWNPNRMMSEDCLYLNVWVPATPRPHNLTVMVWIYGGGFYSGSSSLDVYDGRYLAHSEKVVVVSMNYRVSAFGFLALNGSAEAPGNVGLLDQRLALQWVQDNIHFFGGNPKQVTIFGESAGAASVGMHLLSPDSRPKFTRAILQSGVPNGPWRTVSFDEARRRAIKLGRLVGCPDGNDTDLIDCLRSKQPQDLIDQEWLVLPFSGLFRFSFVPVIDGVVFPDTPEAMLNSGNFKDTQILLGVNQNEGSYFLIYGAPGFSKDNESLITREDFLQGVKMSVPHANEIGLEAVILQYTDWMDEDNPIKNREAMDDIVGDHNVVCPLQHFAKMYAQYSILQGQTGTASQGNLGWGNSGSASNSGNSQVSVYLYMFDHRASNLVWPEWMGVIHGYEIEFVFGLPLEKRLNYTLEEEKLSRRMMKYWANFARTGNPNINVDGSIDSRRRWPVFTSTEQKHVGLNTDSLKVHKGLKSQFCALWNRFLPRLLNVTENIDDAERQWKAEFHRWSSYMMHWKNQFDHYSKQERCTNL

For `N.N.[Cl][Pt][Cl]` [Cisplatin, reference compound], the GI50 ([1]; 48 h) was 2.7 ± 0.4 µM, the GI50 ([2]; 48 h) was 4.9 ± 0.2 µM and the GI50 [3] was 1.8 ± 0.5 µM. It also gave a GI50 [4] of 23 ± 4.3 µM, a GI50 ([5]; 48 h) of 1.9 ± 0.2 µM and a GI50 [6] of 17 ± 3.3 µM.
In the case of `Cc1c(C)c2c(c(C)c1O)CCC(C)(C(=O)O)O2` (racemic) [Trolox, (±)-6-Hydroxy-2,5,7,8-tetramethylchromane-2-carboxylic acid], the “ABTS IC50” value [7] is reported as 2.33 ± 0.11 μg per mL.
`CC1=C(CC/C(C)=C/CO)[C@]2(C)CCCC(C)(C)C2CC1` (stereo partly drawn) [Compound 2, ent-labda-8,13-E-diene-15-ol] showed a GI50 ([1]; Homo sapiens, SW1573, 48 h) of 5.4 ± 0.6 µM, an IC50 [8] of 63.1 µM and an IC50 [9] of 18.8 µM. For the same compound, the GI50 ([2]; Homo sapiens, A549, 48 h) was 4.5 ± 0.1 µM, the “apoptosis kinetics (onset of cell death)” value [10] was “induce death in HeLa cells earlier than coumarin 1” and the “TGI (total growth inhibition) against HeLa cells” value [3] was 46 ± 0.3 µM. The LC50 (50% lethal concentration) ([3]; Homo sapiens, HeLa) was 69 ± 27 µM, the GI50 ([3]; Homo sapiens, HeLa) was 4.8 ± 0.3 µM and the “relaxation effect in aortic rings” value [11] was “slight relaxation effect; also recorded: do not cause vascular relaxation; also recorded: no vascular relaxation”. The GI50 ([4]; Homo sapiens, WiDr) was 9 ± 3.4 µM, the GI50 ([5]; Homo sapiens, HBL-100, 48 h) was 10 ± 1.3 µM and the GI50 [12] was 4.5 to 10 µM. It also gave a GI50 ([6]; Homo sapiens, T47D) of 5.1 ± 0.3 µM.
Work on `CC1=C(C(=O)CC(C)C)O[C@@H](CC(=O)c2c(C)cccc2O)[C@H]2[C@@H]1CC[C@@H]2C` [Compound 1, 2-nor-1,2-secolycoserone] yielded a GI50 ([1]; Homo sapiens, SW1573, 48 h) of 25 ± 5.6 µM, an IC50 [8] of 29.2 µM and an IC50 [9] of 3.15 µM. The GI50 ([2]; Homo sapiens, A549, 48 h) was 23 ± 7.2 µM, the IC50 [13] was 15 µM and the “TGI (total growth inhibition) against HeLa cells” value [3] was 82 ± 4.5 µM. For the same compound, the LC50 (50% lethal concentration) ([3]; Homo sapiens, HeLa) was over 100 µM, the GI50 ([3]; Homo sapiens, HeLa) was 21 ± 4.5 µM and the “relaxation effect in aortic rings” value [11] was “slight relaxation effect; also recorded: do not cause vascular relaxation”. For the same compound, the GI50 ([4]; Homo sapiens, WiDr) was 36 ± 4.1 µM, the GI50 ([5]; Homo sapiens, HBL-100, 48 h) was 31 ± 0.3 µM and the GI50 ([6]; Homo sapiens, T47D) was 30 ± 0.1 µM.
With `Cc1cc(C(C)(C)C)c(O)c(C(C)(C)C)c1` [BHT] the “DPPH IC50” value [14] was 25.09 ± 0.55 μg per mL.

Reference: PMC9774750, “Phenolic Fingerprinting and Bioactivity Profiling of Extracts and Isolated Compounds from Gypothamnium pinifolium Phil” (Antioxidants, 2022)
